Reference: US12377074B2, “Treatment for Wolfram syndrome” (YALE UNIVERSITY, priority 2019, dated 2025)
Entries after “also recorded” stand apart in the source; their conditions may differ.

What was measured:
WFS1-deficient cells [1] = conditions: cited from earlier work
WFS1-deficient cells [2] = conditions: cited from earlier work; remark: listed apart in the source
[3] = test system: calpain activity in INS-1 cells; conditions: siRNA against WFS1, 10 μM dantrolene 48 h, then 0.5 μM thapsigargin 6 h, cleaved spectrin relative to GAPDH; cited from earlier work
[4] = cited from earlier work
WFS1-KO INS1 cells [5] = experiment: Resting cytosolic calcium imaging (Fura-2-AM), WFS1-KO cells; type: cell-based, rat; conditions: 10 μM, 24 h treatment
Procedure: (§1) 2×10^5 cells were plated on each coverslip 2 days before imaging in INS1 medium without G418. HEPES-buffered saline (140 mM NaCl. 1.13 mM MgCl2, 4.7 mM KCL, 2 mM CaCl2, 10 mM D-glucose, and 10 mM HEPES, adjusted to pH 7.4 with NaOH) was used to prepare calcium dye solution and during imaging. In calcium-free HEPES buffer, CaCl2 was replaced with MgCl2 and 0.1 mM EGTA was added to chelate calcium. Fura-2-AM dye powder (Thermo Fisher) was dissolved to 4 μM in calcium-containing HEPES buffer supplemented with 0.03% Pluronic acid (Thermo Fisher). On the day of imaging, each coverslip was incubated in dye solution for 45 min in the dark at room temperature. Each coverslip was then washed 3 times in HEPES-buffered saline solution before calcium imaging began. Calcium measurements were performed with a Hammamatsu Orca R2 camera attached to a Zeiss microscope with a Sutter Lambda DG4 for excitation ratio imaging. Cells were imaged using sequential excitation at 340/380 nm (Fura-2-AM). Images were acquired with emission bandwidth of 501 to 550 nm every second. The raw 340 and 380 signals for each cell were subtracted by corresponding background signal before a 340/380 ratio was calculated. Max amplitude and area under the curve were calculated using PRISM Statistical Software 8. Rate of rise was quantified as the gradient between 25% and 75% maximum amplitude. […]

WFS1-WT INS1 cells [6] = experiment: Resting cytosolic calcium imaging (Fura-2-AM), WFS1-WT cells; type: cell-based, rat; conditions: 10 μM, 24 h treatment
Procedure: as §1

WFS1-KO INS1 cells [7] = experiment: CellTiter-Glo cell viability assay, WFS1-KO cells; type: cell-based, rat; conditions: for cell viability after hyperglycemia / cell viability at baseline: WFS1-KO cells; for cell viability after hyperglycemia: 30 mM additional glucose (30G) 48 h, normalized to CTRL, 10 μM in FIG. 19C; for cell viability at baseline: no additional glucose
Procedure: CellTiter-Glo™ (CTG) assay (Promega) was used to quantify ATP-dependent bioluminescence as an indicator of cell viability. […] After treatment was completed, 100 μL of CTG solution was added to each well and 20 minutes later, reading was performed using a Tecan Infinite M1000 Pro microplate reader using the following setting: 5 s orbital shaking (3 mm, 216 rpm), followed by imaging in luminescence mode with 500 ms integration time.
Because intracellular calcium is an important determinant of cell viability, we measured cell viability in WFS1-WT and WFS1-KO cells. A luminescent, ATP-based assay was used.

WFS1-WT INS1 cells [8] = experiment: CellTiter-Glo cell viability assay, WFS1-WT cells; type: cell-based, rat; conditions: 30 mM additional glucose (30G) 48 h, normalized to CTRL, 10 μM in FIG. 19C
Procedure: (§2) CellTiter-Glo™ (CTG) assay (Promega) was used to quantify ATP-dependent bioluminescence as an indicator of cell viability. To assess cell viability, INS1 cells were plated in white 96-well plates (Cat. 07-200-628, Fisher Scientific) at a density of 2×10^3 cells per well and treated the following day with high glucose and/or the indicated drugs for 48 hours before imaging. After treatment was completed, 100 μL of CTG solution was added to each well and 20 minutes later, reading was performed using a Tecan Infinite M1000 Pro microplate reader using the following setting: 5 s orbital shaking (3 mm, 216 rpm), followed by imaging in luminescence mode with 500 ms integration time.
(§3) Because intracellular calcium is an important determinant of cell viability, we measured cell viability in WFS1-WT and WFS1-KO cells. A luminescent, ATP-based assay was used. […] Following hyperglycemia (additional 30 mM glucose for 48 h), we observed an approximately 40% reduction in cell viability in WFS1-KO cells, whereas cell viability in WFS1-WT cells was only 15% lower than under control conditions (FIG. 19C). WFS1-KO cells could be rescued by WFS1 re-expression (SI Appendix, FIG. S5A). These findings are supported by previous reports showing that WFS1 deficiency causes progressive loss of pancreatic β-cells.

WFS1-WT INS1 cells [9] = experiment: Glucose-stimulated insulin secretion (insulin ELISA), WFS1-WT cells; type: cell-based, rat; conditions: 10 μM drug, 24 h
Procedure: (§4) For glucose-stimulated insulin secretion studies, INS1 cells were plated on 6-well plates at a density of 6×10^5 cells per well. After 24 hours, cells were incubated with drugs for another 24 hours. Two days after plating, the insulin ELISA assays were performed following a previously published protocol. In detail, preincubating cells in DMEM-base (Sigma) supplemented with 2.5 mM glucose for 1.5 h was followed by a 45 min incubation in DMEM-base with either 2.5 mM glucose for basal secretion or 9 mM glucose for stimulated secretion as indicated. 200 μl of supernatant were collected for analysis of insulin concentration using the Rat High Range ELISA kit (80-INSRTH-E01, ALPCO). Cells were washed with ice cold PBS and lysed in 1 mL 0.1% Triton X-100. Insulin levels were normalized to total protein measured by Micro BCA protein assay kit (23235, Thermo Fisher Scientific).

WFS1-OE INS1 cells = experiment: CellTiter-Glo cell viability assay, WFS1-OE cells; type: cell-based, rat; conditions: 30 mM additional glucose (30G) 48 h
Procedure: as §2, §3

WFS1-KO INS1 cells [10] = experiment: Glucose-stimulated insulin secretion (insulin ELISA), WFS1-KO cells; type: cell-based, rat; conditions: 10 μM drug; for glucose-stimulated insulin secretion: 9 mM glucose stimulation; for difference in glucose-stimulated insulin secretion between WFS1-WT and WFS1-KO cells: after stimulation with 9 mM glucose
Procedure: as §4

INS-1 cells (WT) = experiment: Cell survival after high glucose, WT INS-1 cells (first set); type: cell-based, rat; conditions: for cell survival after treatment with 31 mM glucose for 48 hours (glucose induced cell death): survival normalized to % survival at 1 mM glucose
Procedure: (§5) Survival is normalized to % survival at 1 mM glucose.
as §5

WFS1 KO INS-1 cells = experiment: Cell survival after high glucose, WFS1 KO INS-1 cells (first set); type: cell-based, rat; conditions: for cell survival after treatment with 31 mM glucose for 48 hours (glucose induced cell death): 31 mM glucose 48 h, survival normalized to % survival at 1 mM glucose
Procedure: as §5
The concentration range for protection from cell death by high glucose in WFS1 KO cells is similar.

Q: What does the source list for `O=C1CN(/N=C/c2ccc(-c3ccc([N+](=O)[O-])cc3)o2)C(O)=N1` [Dantrolene, dantrolene]?
A: apoptosis (WFS1-deficient cells [1]): suppressed; cytosolic calcium levels (WFS1-deficient cells [2]): restored; calpain activity [3]: reduced; side effects of prolonged use [4]: liver toxicity

Q: Which results are given for `CCC(NC(=O)OCc1ccccc1)C(=O)C(=O)NCCCN1CCOCC1` (centres unmarked) [calpain inhibitor XI]?
A: resting cytosolic calcium (WFS1-KO INS1 cells [5]): lowered the resting cytosolic calcium in WFS1-KO cells to the level of WFS1-WT cells; also recorded: reversed elevated cytosolic calcium; resting cytosolic calcium (WFS1-WT INS1 cells [6]): without affecting; high glucose-induced loss of cell viability, dose dependence (WFS1-KO INS1 cells [7]; WFS1-KO cells (clone #1), high glucose, dose series): reversed glucose toxicity-induced loss of cell viability in a dose-dependent manner; also recorded: dose-dependently reversed; cell viability after hyperglycemia (WFS1-KO INS1 cells [7]): fully rescued cell viability back to baseline; also recorded: rescued cell viability back to normal level; cell viability after hyperglycemia (WFS1-KO INS1 cells [7]; listed as C.I.): rescued; cell viability at baseline (WFS1-KO INS1 cells [7]): did not significantly affect cell viability; cell viability after hyperglycemia (WFS1-WT INS1 cells [8]): fully rescued cell viability back to baseline; cell viability after hyperglycemia (WFS1-WT INS1 cells [8]; listed as C.I.): rescued; insulin secretion (WFS1-WT INS1 cells [9]): did not affect; cell viability after hyperglycemia (WFS1-OE INS1 cells): fully rescued cell viability back to baseline; glucose-stimulated insulin secretion (WFS1-KO INS1 cells [10]; WFS1-KO cells, 24 h): reversed the impairment; also recorded: can be reversed; difference in glucose-stimulated insulin secretion between WFS1-WT and WFS1-KO cells (WFS1-KO INS1 cells [10]): ameliorated the difference

Q: For `CN(C)CCCN1c2ccccc2Sc2ccc(Cl)cc21` [chlorpromazine], which “cell survival after treatment with 31 mM glucose for 48 hours (glucose induced cell death)” value (“cell survival after treatment” below) (INS-1 cells (WT); 31 mM glucose 48 h) is on record?
A: no effect

Q: What about the “cell survival after treatment” value (INS-1 cells (WT); 31 mM glucose 48 h, listed as chlorprmazine) of the same compound?
A: no effect on survival

Q: What about the “cell survival after treatment” value (WFS1 KO INS-1 cells) of the same compound?
A: no effect

Q: And the “cell survival after treatment” value (WFS1 KO INS-1 cells; listed as chlorprmazine)?
A: no effect on survival

Q: Which results are given for `CC(C)C(=O)c1c(C(C)C)nn2ccccc12` [ibudilast]?
A: resting cytosolic calcium (WFS1-KO INS1 cells [5]): lowered the resting cytosolic calcium in WFS1-KO cells to the level of WFS1-WT cells; also recorded: reversed elevated cytosolic calcium; resting cytosolic calcium (WFS1-WT INS1 cells [6]): without affecting; cell viability after hyperglycemia (WFS1-KO INS1 cells [7]): fully rescued cell viability back to baseline; also recorded: rescued cell viability back to normal level; cell viability after hyperglycemia (WFS1-KO INS1 cells [7]; listed as IBU): rescued; cell viability at baseline (WFS1-KO INS1 cells [7]): did not significantly affect cell viability; also recorded: slightly raised cell viability; cell viability after hyperglycemia (WFS1-WT INS1 cells [8]): fully rescued cell viability back to baseline; cell viability after hyperglycemia (WFS1-WT INS1 cells [8]; listed as IBU): rescued; cell survival at low (normal) glucose (INS-1 cells (WT); 1 mM glucose): no effect; also recorded: does not alter cell survival; concentration giving nearly full recovery/protection of survival (INS-1 cells (WT); 31 mM glucose 48 h): 1 µM; EC50 (INS-1 cells (WT); 31 mM glucose 48 h, read-out: half max effect on survival): ~300 nM; cell survival after treatment with 31 mM glucose for 48 hours (glucose induced cell death) (INS-1 cells (WT); 31 mM glucose 48 h): rescued viability; also recorded: did protect cell survival; insulin secretion at baseline (WFS1-WT INS1 cells [9]; 2.5 mM glucose): enhanced insulin secretion at baseline; cell viability after hyperglycemia (WFS1-OE INS1 cells): fully rescued cell viability back to baseline; cell survival after treatment with 31 mM glucose for 48 hours (glucose induced cell death) (WFS1 KO INS-1 cells): rescued viability; concentration range for protection from cell death by high glucose, compared with WT (WFS1 KO INS-1 cells; high glucose): similar; insulin secretion at baseline (WFS1-KO INS1 cells [10]; WFS1-KO cells, 2.5 mM glucose, 24 h): enhanced insulin secretion at baseline; glucose-stimulated insulin secretion (WFS1-KO INS1 cells [10]; WFS1-KO cells, 24 h): reversed the impairment; also recorded: can be reversed; difference in glucose-stimulated insulin secretion between WFS1-WT and WFS1-KO cells (WFS1-KO INS1 cells [10]): ameliorated the difference

Q: With `[Li]` [lithium] as the compound, how does the “cell survival after treatment” value (INS-1 cells (WT); 31 mM glucose 48 h) read?
A: no effect

Q: What about the “cell survival after treatment” value (WFS1 KO INS-1 cells) of the same compound?
A: no effect

Q: Which “cell survival after treatment” value (INS-1 cells (WT); 31 mM glucose 48 h) does the source give for `CCCC(CCC)C(=O)O` [valproic acid] here?
A: no effect

Q: And the “cell survival after treatment” value (INS-1 cells (WT); 31 mM glucose 48 h, listed as valproate)?
A: no effect on survival

Q: What about the “cell survival after treatment” value (WFS1 KO INS-1 cells) of the same compound?
A: no effect

Q: And the “cell survival after treatment” value (WFS1 KO INS-1 cells; listed as valproate)?
A: no effect on survival
